In patent US20060025446A1, “Propargyl nitroxides and indanyl nitroxides and their use for the treatment of neurologic diseases and disorders” (priority 2004, published 2006):
Structures can show the parent of a compound that is named as a salt.

Tests used:
[1] = system: Human Red Blood Cells; test: Hypochlorite (HOCl) hemolysis of human red blood cells model; assay type: cell-based; conditions: antioxidant activity; compounds dissolved at 5 mg/ml, aliquots tested
Protocol: Hypochlorite (HOCl) Hemolysis of Human Red Blood Cells Model
The reaction is based on the ability of oxygen radicals to lyse red blood cells. Antioxidant compounds such as ascorbic acid and 4-hydroxy-TEMPO (TEMPOL) prevent membrane damage in a dose dependent manner. All compounds were dissolved at a concentration of 5 mg/ml and aliquots were tested for their ability to prevent lysis.

[2] = Chemiluminescence model (without cells): Luminol, SIN-1, selenite, BSA; assay type: biochemical; conditions: antioxidant activity
Text: Chemiluminescence Model (Without Cells)
Luminescence was generated in vials containing the following compounds: Luminol, SIN-1 (a generator of NO radicals), selenite, BSA. This reaction is inhibited by scavengers of peroxynitirites as well as scavengers of NO and other oxygen free radicals.

[3] = system: Neutrophils; test: PMA-induced oxidative burst in neutrophils model (DCFH, FACS); assay type: cell-based; conditions: PMA 10 ng/ml for 30 minutes
Protocol: PMA-Induced Oxidative Burst in Neutrophils Model
The cells were activated with PMA (10 ng/ml) for 30 minutes and incubated with 2,7-dichlorodihydrofluorescin diacetate (DCFH), which is converted to a fluorescent compound in the presence of oxygen radicals and peroxynitrites. The fluorescent cells were detected in a cell sorter (FACS).

[4] = system: NGF-Differentiated PC12 Cells; test: MPP+ Parkinson neurotoxicity/neuroprotection model, LDH release; assay type: cell-based; conditions: MPP+ 1000 μM, 48-52 hr
Protocol: The Parkinson Neurotoxicity Model of 1-methyl-4-phenyl piridinium (MPP+ Iodine Salt, 1000 μM for 48-52 hr), Using 7-10 Days NGF-Differentiated PC12 Cells.
The slow developing cell death in this model is believed to be a result of inhibition of mitochondrial complex I and generation of oxygen and nitrogen radicals. Therefore the antioxidant tempol (4-HYDROXY-TEMPO) was used as a positive standard in the screening experiments with the compounds. The following detailed protocol was employed for testing.
MPP+—Neurotoxicity/Neuroprotection Protocol:
• 1. PC12 cells (2×10^5 cells) were seeded on NUNC 6-well dishes coated with 200 μg/ml collagen (rat tail type I) and grown in DMEM medium containing 7% Fetal Calf Serum, 7% Horse Serum and […] Penicilin and 100 ug/ml Streptomycin. • 2. Differentiation of the cells for 7-10 days was achieved by treatment with mouse β-NGF (β-nerve growth factor) (50 ng/ml) added freshly every 2-3 days to the culture medium. • 3. Cultures were progressively evaluated for the differentiation response expressed by elongation of neurites, increased percentage of responsive cells, and other morphological parameters. • 4. At the day of the experiment, the medium of the differentiated cultures was replaced to fresh medium containing NGF (50 ng/ml). • 5. […] LDH (lactic dehydrogenase) release to the medium (neurotoxicity) was measured after 48-52 hr after the addition of MPP+, using an ELISA reader. […]
Neurotoxicity is defined as the percentage of LDH released to the medium at the end of the experiment calculated according to the following formula: {LDH(MPP)−LDH(control)}/{LDH(total)−LDH(control)}×100=Neurotoxicity (% of total cell death) • LDH(MPP): LDH release at the end of MPP+ insult • LDH(control): LDH release at the end of experiment from untreated cultures • LDH(total): LDH released from the cultures upon freezing at −80° C. and thawing at room temperature (release of total/maximal LDH present in the culture) […]

[5] = system: EAE using MOG (Myelin Oligodendrocyte Glycoprotein); test: MOG induced EAE in mice; assay type: in vivo, Female C57B1/6 mice
[6] = system: Experimental Allergic Encephalomyelitis (EAE) using PLP 139-151; test: PLP induced EAE in mice; assay type: in vivo, Female SJL mice; conditions: 50 mg/kg/day orally by gavage, day 1 to day 20; for Incid.: sick animals/animals in group
Protocol: Induction of Experimental Allergic Encephalomyelitis (EAE) Using PLP
Female SJL mice (12 weeks old) were inoculated with the encephalitogienic peptide of proteolipid protein (PLP 139-151) synthesized to a purity of 70% by Sigma (Israel). 150 μg of the peptide were emulsified in complete Freund's adjuvant (CFA) (Difco Laboratories), supplemented with killed mycobacteria (5 mg/ml) and pertussis toxin (200 ng) (Sigma), given subcutaneously at day of inoculation only.
Mice were kept at specific pathogen free (SPF) conditions and given water and food ad libitum. Mice were daily observed for clinical signs from day 10 until day 18-21 post inoculation.
Treatment with Test Compounds
Compounds were dissolved in 2-hydroxypropyl beta cyclodextrin (40% water solution). Treatment started at day 1 post inoculation. The compounds B10 and A10 (50 mg/kg) and vehicle were given orally by gavage every day until day 20 post inoculation.
Interpretation of Results: Calculation of the Incidence of Disease
The number of sick animals in each group was summed. The percentage of sick animals in each group was calculated.
Calculation of the Mean Maximal Score (MMS)
The maximal scores of each of the 15 mice in the group were summed.
The mean maximal score of the group were calculated as follows: Σ maximal score of each mouse/number of mice in the group. Calculation of the Mean Disease Duration (MDD)
The mean duration of disease expressed in days was calculated as follows: Σ duration of disease of each mouse/number of mice in the group. Calculation of the Group Mean Score (GMS)
The scores of each of the 15 mice in the group was summed and the mean score per day was calculated.
The group mean score was calculated as follows: Σ total score of each mouse per day/number of mice in the group.

[7] = dose 50 mg/kg/day, gavage x2/day, day 1 to 30

| Structure (SMILES) | HOCl (% lysis) [1] [%] | Chemiluminescence (% inhib.) [2] [%] | PMA (% cells activated) [3] [%] | MDD (mean disease duration) [6] [days] | MDO (mean day of onset) [6] | MMS (mean maximal score) [6] | Mean score [6] | Incid. [6] | also measured |
| --- | --- | --- | --- | --- | --- | --- | --- | --- | --- |
| O=C1O[C@H]([C@@H](O)CO)C(O)=C1O [Ascorbic acid] | 100 | 100 | 100 |  |  |  |  |  |  |
| CC1(C)CC(O)CC(C)(C)N1[O] [Tempol, 4-hydroxy-2,2,6,6-tetramethylpiperidine-1-nitroxide] | 25 | 57 | 70 |  |  |  |  |  | Neuroprotection MPP+ ([4]; at 0.5-1.0 mmol): Active at 0.5-1.0 |
| C#CCN[C@@H]1CCc2ccc(NC(=O)OC3CC(C)(C)N([O])C(C)(C)C3)cc21 [Compound A11, (3-Prop-2-ynylamino-indan-5-yl) carbamic acid 2,2,6,6-tetramethyl-1-piperidinyloxy-4-yl ester HCl] |  |  |  |  |  |  |  |  | Neuroprotection MPP+ ([4]; at 10 μM): 43% at 10; effect on EAE ([5]; discussion of results): significant beneficial effect; onset of clinical signs of EAE ([5]; discussion of results): long delay; MDD (mean disease duration) [5, 7]: 8.0 ± 2.02 days; MDO (mean day of onset) [5, 7]: 17.14 ± 0.80; MMS (mean maximal score) [5, 7]: 2.93 ± 0.76; Mean score [5, 7]: 0.65 ± 0.09; Incid. ([5]; sick animals/animals in group, dose 50 mg/kg/day, gavage x2/day, day 1 to 30): 7/13 |
| C#CCN[C@@H]1CCc2ccc(OC(=O)NC3CC(C)(C)N([O])C(C)(C)C3)cc21.Cl [Compound A10, (2,2,6,6-Tetramethyl-1-piperidinyloxy-4-yl)-carbamic acid 3(R)-prop-2-ynylamino-indan-5-yl ester HCl] |  |  |  | 5.8 ± 0.86 | 11 ± 0.2 | 5.0 ± 0.8 | 3.4 ± 0.3 | 5/5 |  |
| C#CCNC1CC(C)(C)N([O])C(C)(C)C1.Cl [Compound B10, 2,2,6,6-Tetramethyl-4-(prop-2-ynylamino)-piperidine nitroxide HCl] | 45 | 42 |  | 5.2 ± 0.97 | 13.6 ± 0.81 | 5.0 ± 0.77 | 3.57 ± 0.29 | 5/5 | Neuroprotection MPP+ ([4]; at 1 & 10 μM): Active at 1 & 10; (# dead) [6]: 3 |
